Source: US20240209028A1, “CNP COMPOUNDS” (priority 2022, published 2024)
Starred links: 1 amine or outer side, 2 acyl side, 3 side chain; linkers in the order of their positions; H or OH if unused. Positions of bridges follow the written chain, without caps; N, C: chain ends. Residues, ends and D or L forms follow the SMILES beside them. *: point of attachment. C18 diacid = O=C(O)CCCCCCCCCCCCCCCCC(=O)*; γGlu = O=C(O)[C@H](CCC(=O)[*:2])N[*:1]; AEEA = NCCOCCOCC(=O)O

Tests used:
[1] = PK after i.v. and s.c. administration to Göttingen minipig; conditions: female, Göttingen, minipig, in vivo
Experimental: (§1) The purpose of this study was to investigate pharmacokinetic and pharmacodynamic properties after intravenous (i.v.) and subcutaneous (s.c.) administration to Gottingen Minipig and domestic LYD pig, and to estimate bioavailability after s.c. dosing. Quantitative plasma analysis of CNP and cGMP levels were performed as described in
(§2) Animals and dosing: The pharmacokinetic and pharmacodynamic studies in Gottingen Minipig or domestic LYD pig were conducted at CRO Minerva Imaging or Novo Nordisk A/S, respectively. CNP compounds were dosed to normal female 1) Gottingen minipigs 6-12 months of age with an average weight of 22 kg or 2) domestic LYD pigs 4-5 months of age with and average weight of 80 kg. At least one week prior to dosing, permanent central venous catheters were implanted for blood sampling and intravenous (i.v.) dosing. For subcutaneous (s.c.) dosing, the pigs were ultrasound scanned and the optimal injection area laterally on the neck marked by a permanent tattoo. An insulin pen (NovoPen Echo or NovoPen 4) and insulin needle (NovoFine 32G/4 mm or NovoTwist 32G/5 mm) were used for accurate deposition of the CNP formulations in the subcutaneous fat tissue with the needle perpendicular to the skin.
(§3) CNP compounds were formulated according to the principles in General Methods of Preparation—Method G and were either A) 8 mM sodium phosphate, 250 mM glycerol, pH 6.5, B) 5 mM sodium acetate, 250 mM glycerol, pH 4.0, C) 5 mM sodium acetate, 240 mM propylene glycol, pH=4.0, D) 8 mM sodium phosphate, 250 mM glycerol, pH 7.5 or E) 20 mM sodium phosphate, 223 mM propylene glycol, pH 6.0.
(§4) Intravenously, the CNP compounds were dosed at 30-60 nmol/kg to Minipig and 15-43 nmol/kg to domestic pig using formulations A-E. Subcutaneously, the CNP compounds were dosed at 55-62 nmol/kg to Minipig and 20-30 nmol/kg to domestic pig using formulations A-D.
(§5) Sampling: Blood samples of approximately 1 mL were collected pre dose and up to 14 days post dose into EDTA-coated tubes (8 mM) for cGMP and CNP compound analysis by LC-MS. In few instances, cGMP was only analysed up to 48 hours post dose after intravenous dosing in domestic LYD pig. The blood samples were kept on wet ice for maximum 30 minutes until centrifugation for 10 minutes at 4° C. and minimum 1500G, and the plasma samples were stored at −20° C. until analysis.
(§6) Plasma concentration-time profiles were analyzed by non-compartmental PK analysis using Phoenix WinNonlin 8.1, Pharsight Inc., Mountain View, CA, USA. Calculation of the area under the plasma concentration-time curve (AUC) was based on the “linear up log down” method, and uniform weighting was used for estimation of the terminal rate constant (λz). S.c. bioavailability (F) was calculated as the dose-normalized AUC (AUC/dose) after s.c. administration divided by the AUC/dose after i.v. administration. […]

[2] = PK after i.v. and s.c. administration to domestic LYD pig; conditions: female, pig, in vivo; for bioavailability: LYD (domestic); for clearance / half-life: LYD
Experimental: as §1, §2, §3, §4, §5, §6

[3] = Local tolerance of CNP compounds in rats (s.c. injection, histopathology); assay type: in vivo, Sprague Dawley rat; conditions: rat, s.c. 350 μl, about 1000 nmol/ml, 5 days post injection
Experimental: The purpose of this study was to evaluate the local tissue reaction to subcutaneous injection of CNP compounds in rats.
Procedure: The CNP compounds were formulated according to the principles described in General Methods of Preparation-Method G. Each Sprague Dawley rat (male, 10-11 weeks of age at arrival, Janvier, France) was dosed s.c. with 250 or 350 uL of the same compound (formulation concentration of 1000 nmol/mL) 120 h prior to tissue collection resulting in a total of two injections for each animal (Table 15). Injection site (flank or neck) was alternated across animals within each group and time point.
Animals had access to tap water and food (Altromin 1324) ad libitum. Group size was n=3 for vehicles and positive control, and n=4 for test compounds. Vehicles and compounds were formulated in either 5 mM sodium acetate, 250 mM glycerol, pH 4.0 or 8 mM sodium phosphate, 250 mM glycerol, pH 7.4 as shown in Table 16.
The animals were anesthetized with isoflurane. Via an electric shaving machine, a squared area of fur (2 cm×2 cm) was removed either from the rats' neck or flank area). For dosing, a new injection needle (25G canula, 1 ml syringe) was placed in the middle of the square border closest to the animal's head and the needle was inserted into the skin from the border towards the center of the square. […] On the day of tissue collection, the rats were deeply anaesthetized with isoflurane and euthanized by exsanguination. The injection sites were inspected and scored with regards to pathological lesions. The injection sites were evaluated, and any changes were noted (location, colour, shape and size), and sampled for histology preparation.
The injection sites were removed and fixed in 4% phosphate buffered neutral formaldehyde in sealed plastic containers.
Each injection site was subsequently cut into three sections 0.8 cm, 1.0 cm and 1.2 cm from the square border where the injection needle was placed, and, respectively, these sections represented the injection sites and the adjacent tissue. The tissue was processed, embedded in paraffin and cut in 2-4 μm thin sections, stained with the haematoxylin and eosin (H&E), and evaluated microscopically with a light microscope. Histopathological changes were graded on a 5-level scale (Minimal (Min), Mild (Mil), Moderate (Mod), Marked (Mar) and Severe (Sev)).

Row | SMILES | clearance ([1]; iv) | half-life ([1]; iv) | bioavailability ([1]; sc) | half-life ([1]; sc) | bioavailability ([2]; sc) | clearance ([2]; iv) | half-life ([2]; iv) | half-life ([2]; sc) | Number of injections by severity of necrosis: Mil. [3] | Number of injections by severity of necrosis: NAD (No Abnormalities Detected) [3]
1 | CC[C@H](C)[C@@H]1NC(=O)[C@H](CCCNC(=N)N)NC(=O)[C@H](CCC(=O)O)NC(=O)[C@H](CC(C)C)NC(=O)[C@H](CCCCN)NC(=O)[C@H](CC(C)C)NC(=O)CNC(=O)[C@H](Cc2ccccc2)NC(=O)[C@@H](NC(=O)CNC(=O)[C@H](CCCCN)NC(=O)[C@H](CO)NC(=O)[C@H](CC(C)C)NC(=O)CNC(=O)[C@H](CCCCN)NC(=O)[C@H](CCCCN)NC(=O)[C@H](CCC(N)=O)NC(=O)[C@H](C)NC(=O)CNC(=O)[C@H](CCCCN)NC(=O)[C@H](Cc2ccc(O)cc2)NC(=O)[C@H](CCCCN)NC(=O)[C@H](CCCNC(=N)N)NC(=O)[C@H](C)NC(=O)COCCOCCNC(=O)COCCOCCNC(=O)CC[C@H](NC(=O)CCCCCCCCCCCCCCCCC(=O)O)C(=O)O)CSSC[C@@H](C(=O)O)NC(=O)CNC(=O)[C@H](CC(C)C)NC(=O)CNC(=O)[C@H](CO)NC(=O)[C@H](CC(C)C)NC(=O)[C@H](CO)NC(=O)CNC1=O [Compound 0776] ({C18 diacid-γGlu-AEEA-AEEA}-ARKYKGAQKKGLSKGCFGLKLERIGSLSGLGC-OH; disulfide 16-32) | 20.2 mL/day/kg | 2.5 days | 13% | 2.33 days | 7% | 1.34 mL/h/kg | 1740 min | 2460 min |  | 
2 | CC[C@H](C)[C@@H]1NC(=O)[C@H](CCCNC(=N)N)NC(=O)[C@H](CC(=O)O)NC(=O)[C@H](CC(C)C)NC(=O)[C@H](CCCCN)NC(=O)[C@H](CC(C)C)NC(=O)CNC(=O)[C@H](Cc2ccccc2)NC(=O)[C@@H](NC(=O)CNC(=O)[C@H](CCCCN)NC(=O)[C@H](CO)NC(=O)[C@H](CC(C)C)NC(=O)CNC(=O)[C@H](CCCCN)NC(=O)[C@H](CCCCN)NC(=O)[C@H](CCC(N)=O)NC(=O)[C@H](C)NC(=O)CNC(=O)[C@H](Cc2c[nH]cn2)NC(=O)[C@H](CCC(=O)O)NC(=O)COCCOCCNC(=O)COCCOCCNC(=O)CC[C@H](NC(=O)CCCCCCCCCCCCCCCCC(=O)O)C(=O)O)CSSC[C@@H](C(=O)O)NC(=O)CNC(=O)[C@H](CC(C)C)NC(=O)CNC(=O)[C@H](CO)NC(=O)[C@H](CC(C)C)NC(=O)[C@H](CO)NC(=O)CNC1=O [Compound 1235] |  |  |  |  | 25% | 3.28 mL/h/kg | 1200 min | 1740 min |  | 
3 | CC[C@H](C)[C@@H]1NC(=O)[C@H](CCCNC(=N)N)NC(=O)[C@H](CC(=O)O)NC(=O)[C@H](CC(C)C)NC(=O)[C@@H]2CCCN2C(=O)[C@H](CC(C)C)NC(=O)CNC(=O)[C@H](Cc2ccccc2)NC(=O)[C@@H](NC(=O)CNC(=O)[C@H](CCCCN)NC(=O)[C@H](CO)NC(=O)[C@@H](NC(=O)CNC(=O)[C@@H](NC(=O)[C@H](Cc2c[nH]cn2)NC(=O)[C@H](CCC(N)=O)NC(=O)[C@H](C)NC(=O)CNC(=O)[C@H](Cc2c[nH]cn2)NC(=O)[C@H](Cc2ccc(O)cc2)NC(=O)[C@H](CCCCN)NC(=O)[C@H](CCCNC(=N)N)NC(=O)[C@H](C)NC(=O)COCCOCCNC(=O)COCCOCCNC(=O)CC[C@H](NC(=O)CC[C@H](NC(=O)CC[C@H](NC(=O)CCCCCCCCCCCCCCCCC(=O)O)C(=O)O)C(=O)O)C(=O)O)[C@@H](C)O)C(C)C)CSSC[C@@H](C(=O)O)NC(=O)CNC(=O)[C@H](CC(C)C)NC(=O)CNC(=O)[C@H](CO)NC(=O)[C@H](CC(C)C)NC(=O)[C@H](CO)NC(=O)CNC1=O [Compound 1420] ({C18 diacid-γGlu-γGlu-γGlu-AEEA-AEEA}-ARKYHGAQHTGVSKGCFGLPLDRIGSLSGLGC-OH; disulfide 16-32) |  |  |  |  |  |  |  |  | 1 | 3
